Laboratory results as given in patent US6229016A, “Method for treating tumors using 2-aryl-naphthyridin-4-ones” (priority 2000, dated 2001).

Legend:
Format in all cases: cell-based
[1] = tested on: HL-60(TB) leukemia cell line; test: cells; details: Homo sapiens; HL-60(TB); read-out: Cytotoxicity log GI50 (converted)
[2] = tested on: NCI-H460 non-small cell lung cancer cell line; test: NCI in vitro screen, non-small cell lung cancer NCI-H460; details: Homo sapiens, read-out: Cytotoxicity log GI50 (converted)
[3] = tested on: MDA-MB-435 breast cancer cell line; test: NCI in vitro screen, breast cancer MDA-MB-435; details: Homo sapiens, read-out: Cytotoxicity log GI50 (converted)
[4] = tested on: OVCAR-3 ovarian cancer cell line; test: NCI in vitro screen, ovarian cancer OVCAR-3; details: Homo sapiens, read-out: Cytotoxicity log GI50 (converted)
[5] = tested on: NCI's 60 human tumor cell line; test: NCI 60 human tumor cell line in vitro screen (average / whole panel); details: calculated from all cell lines tested, molar concentrations, read-out: average log GI50 (converted)
[6] = tested on: SK-MEL-5 melanoma cell line; test: NCI in vitro screen, melanoma SK-MEL-5; details: Homo sapiens, read-out: Cytotoxicity log GI50 (converted)
From the text: (§1) Compounds 41-51 and 53-68 were submitted to NCI and assayed in the NCI's in vitro disease-oriented antitumor screen, which involves determination of a test compound's effects on the growth of approximately 60 human tumor cell lines. See, M. R. Boyd, et al. In Cancer: Principles and Practice of Oncology Updates; De Vita, V. T., Hellman, S., Rosenberg, S. A., Eds; J. B. Lippincoft: Philadelphia, pp 1-12 (1989); and A. Monks, et al. J. Natl. Cancer Inst. 83:757 (1991). These lines include leukemia, non-small cell lung, colon, central nervous system (CNS), melanoma, ovarian, renal, prostate, and breast cancers.
(§2) Compounds 29'-51' were submitted to NCI and assayed in the NCI's in vitro disease-oriented antitumor screen, using the techniques described in Example 5. This assay involves determinations of a test agent's effect on growth parameters against a panel of approximately 60 human tumor cell lines, derived largely from solid tumors, including non-small cell lung, colon, central nervous system, renal, ovarian, prostate, and breast cancers, plus a few leukemia cell lines. The cytotoxic effects of each compound are obtained as GI50 or […] values, which represent the molar drug concentrations required to cause half growth inhibition and total growth inhibition, respectively. The results are expressed for each cell line as average log GI50 values in Table 4, as log GI50 values in Table 5, and as log TGI values and average log TGI values in Table 6.

[7] = tested on: 786-0 renal cancer cell line; test: NCI in vitro screen, renal cancer 786-0; details: Homo sapiens, read-out: Cytotoxicity log GI50 (converted)
From the text: as §1, §2

[8] = tested on: MDA-N breast cancer cell line; test: NCI in vitro screen, breast cancer MDA-N; details: Homo sapiens, read-out: Cytotoxicity log GI50 (converted)
From the text: as §1, §2

[9] = tested on: PC-3 prostate cancer cell line; test: NCI in vitro screen, prostate cancer PC-3; details: Homo sapiens, read-out: Cytotoxicity log GI50 (converted)
From the text: as §1, §2

[10] = tested on: SF-295 CNS cancer cell line; test: NCI in vitro screen, CNS cancer SF-295; details: Homo sapiens, read-out: Cytotoxicity log GI50 (converted)
[11] = tested on: U-251 CNS cancer cell line; test: NCI in vitro screen, CNS cancer U-251; details: Homo sapiens, read-out: Cytotoxicity log GI50 (converted)
[12] = tested on: HCT-116 colon cancer cell line; test: NCI in vitro screen, colon cancer HCT-116; details: Homo sapiens; HCT-1.16 (head); HCT-116 (footnote); read-out: Cytotoxicity log GI50 (converted)

| SMILES | GI50 [1] [nM] | GI50 [2] [nM] | GI50 [3] [nM] | GI50 [4] [nM] | GI50 [5] [nM] | GI50 [6] [nM] | GI50 [7] [nM] | GI50 [8] [nM] | GI50 [9] [nM] | GI50 [10] [nM] | GI50 [11] [nM] | GI50 [12] [nM] |
| --- | --- | --- | --- | --- | --- | --- | --- | --- | --- | --- | --- | --- |
| Cc1ccc2c(n1)N=C(c1cccc3ccccc13)CC2=O [Compound 45, 2-(α-Naphthyl)-7-methyl-1,8-naphthyridin-4-one] | < 10 | 17.4 | < 10 | < 10 | 66.1 | 13.8 | 6030 | < 10 | 30.2 | 24 | 15.5 | < 10 |
| COc1ccccc1-c1cc(=O)c2c(C)ccnc2[nH]1 [Compound 40] | 20900 | 24000 | 6460 | 12900 | 2820 | 22400 | 60300 | 8320 | 20900 | 23400 | 35500 | 7590 |
| Cc1cccc(C2=Nc3nc(C)cc(C)c3C(=O)C2)c1 [Compound 41, 2-(3'-Methylphenyl)-5,7-dimethyl-1,8-naphthyridin-4-one] | 12900 | 44700 | 20000 | 30200 | – | 34700 | 56200 | 20900 | 31600 | 64600 | 53700 | 17800 |
| COc1ccccc1-c1cc(=O)c2cccnc2[nH]1 [Compound 39] | 38900 | 38900 | 39800 | 47900 | 40700 | 31600 | 36300 | 20000 | 29500 | 23400 | 67600 | 27500 |
| COc1ccccc1-c1cc(=O)c2ccc(C)nc2[nH]1 [Compound 42] | 74100 | 97700 | 21900 | > 100000 | 79400 | 51300 | > 100000 | 20000 | > 100000 | > 100000 | > 100000 | 38000 |
| O=c1cc(-c2cccc(Cl)c2)[nH]c2ncccc12 [32'] | 10.5 | 87.1 | < 10 | 45.7 | 229 | 52.5 | 56.2 | 17.4 | 22.4 | 63.1 | 145 | 28.8 |
| Cc1ccnc2c1C(=O)CC(c1cccc3ccccc13)=N2 [Compound 43, 2-(α-Naphthyl)-5-methyl-1,8-naphthyridin-4-one] | < 10 | < 10 | < 10 | < 10 | 35.5 | < 10 | 12 | < 10 | 20 | 10.7 | < 10 | < 10 |
| Cc1cc(C)c2c(n1)N=C(c1cccc3ccccc13)CC2=O [Compound 46, 2-(α-Naphthyl)-5,7-dimethyl-1,8-naphthyridin-4-one] | 245 | 631 | 191 | 347 | 1050 | 468 | 9550 | 234 | 759 | 589 | 372 | 380 |
| Cc1ccnc2c1C(=O)CC(c1ccc3ccccc3c1)=N2 [Compound 48, 2-(β-Naphthyl)-5-methyl-1,8-naphthyridin-4-one] | 204 | 1120 | 204 | 1290 | 1200 | 437 | 2400 | 204 | 1380 | 1480 | 646 | 427 |
| Cc1cnc2[nH]c(-c3cccc(Cl)c3)cc(=O)c2c1 [34'] | 30.9 | 50.1 | < 10 | 22.4 | 269 | 70.8 | 42.7 | > 100000 | > 100000 | 25.1 | 69.2 | 30.2 |
| Cc1cnc2[nH]c(-c3cccc(F)c3)cc(=O)c2c1 [29'] | 20.4 | 38.9 | < 10 | 13.5 | 50.1 | 28.2 | 28.2 | 11.7 | 34.7 | 27.5 | 40.7 | 24 |
| Cc1ccc2c(=O)cc(-c3cccc(F)c3)[nH]c2n1 [30'] | 22.4 | 33.1 | 12.3 | 19.5 | 42.7 | 22.4 | 45.7 | 14.5 | 34.7 | 28.8 | 38 | 28.2 |
| Cc1ccc2c(=O)cc(-c3cccc(Cl)c3)[nH]c2n1 [35'] | 28.8 | 41.7 | < 10 | < 10 | 170 | 31.6 | 41.7 | > 100000 | > 100000 | 22.9 | 64.6 | 25.7 |
| Cc1cnc2c(c1)C(=O)CC(c1cccc3ccccc13)=N2 [Compound 44, 2-(α-Naphthyl)-6-methyl-1,8-naphthyridin-4-one] | < 10 | < 10 | < 10 | < 10 | 19.1 | < 10 | < 10 | < 10 | < 10 | < 10 | < 10 | < 10 |
| O=C1CC(c2cccc3ccccc23)=Nc2ncccc21 [Compound 42, 2-(α-Naphthyl)-1,8-naphthyridin-4-one] | < 10 | 38.9 | < 10 | < 10 | – | < 10 | 15.1 | < 10 | 17.8 | < 10 | 10.2 | < 10 |
| O=C1CC(c2ccc3ccccc3c2)=Nc2ncccc21 [Compound 47, 2-(β-Naphthyl)-1,8-naphthyridin-4-one] | 1820 | 3800 | 1780 | 8320 | 8130 | 3470 | 5620 | 1660 | 10500 | 9120 | 4370 | 3800 |
| COc1ccccc1-c1cc(=O)c2c(C)cc(C)nc2[nH]1 [Compound 43] | 30200 | 70800 | 32400 | 64600 | 57500 | 33900 | > 100000 | 33100 | 47900 | 53700 | > 100000 | 74100 |
| Cc1cccc(C2=Nc3ncc(C)cc3C(=O)C2)c1 [Compound 39, 2-(3'-Methylphenyl)-6-methyl-1,8-naphthyridin-4-one] | 174 | – | < 10 | 251 | 646 | 288 | 437 | < 10 | 309 | 417 | 170 | 407 |
